SMILES strings stand for the structures.

Drawing on US20250074891A1 (Anaxis Pharma Pty Ltd., priority 2021, published 2025), this text covers Kd for twelve molecules.

What all share (conditions): Table 35
One test concerns the target RIP1 (Homo sapiens (Human), UniProt Q13546). Put plainly: KINOMEscan binding assay, RIP1.
The next test has as its target RIP3 (Homo sapiens (Human), UniProt Q9Y572). Put plainly: KINOMEscan binding assay, RIP3. On the procedure:
(§1) Kinase assays. For most assays, kinase-tagged T7 phage strains were grown in parallel in 24-well blocks in an E. coli host derived from the BL21 strain. E. coli were grown to log-phase and infected with T7 phage from a frozen stock (multiplicity of infection=0.4) and incubated with shaking at 32° C. until lysis (90-150 minutes).
(§2) The Hill Slope was set to −1.

A further test deals with MLKL (full length) (Homo sapiens (Human), UniProt Q8NB16). As to the kind of experiment: KINOMEscan binding assay, MLKL (full length). On the procedure: as §1, §2
Sequence of MLKL (full length) (Q8NB16 whole entry): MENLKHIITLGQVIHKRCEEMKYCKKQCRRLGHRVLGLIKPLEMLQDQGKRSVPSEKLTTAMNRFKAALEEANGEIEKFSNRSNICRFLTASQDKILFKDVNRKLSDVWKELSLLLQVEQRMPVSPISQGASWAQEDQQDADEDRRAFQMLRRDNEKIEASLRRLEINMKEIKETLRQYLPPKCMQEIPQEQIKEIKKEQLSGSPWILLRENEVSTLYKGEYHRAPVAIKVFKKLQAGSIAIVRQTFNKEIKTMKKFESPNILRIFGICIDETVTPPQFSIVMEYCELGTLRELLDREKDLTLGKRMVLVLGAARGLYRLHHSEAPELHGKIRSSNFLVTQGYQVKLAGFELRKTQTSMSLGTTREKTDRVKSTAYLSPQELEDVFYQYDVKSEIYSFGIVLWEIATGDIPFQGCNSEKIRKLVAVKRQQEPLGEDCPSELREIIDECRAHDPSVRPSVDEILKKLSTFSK

Sequence of RIP3 (Q9Y572 whole entry): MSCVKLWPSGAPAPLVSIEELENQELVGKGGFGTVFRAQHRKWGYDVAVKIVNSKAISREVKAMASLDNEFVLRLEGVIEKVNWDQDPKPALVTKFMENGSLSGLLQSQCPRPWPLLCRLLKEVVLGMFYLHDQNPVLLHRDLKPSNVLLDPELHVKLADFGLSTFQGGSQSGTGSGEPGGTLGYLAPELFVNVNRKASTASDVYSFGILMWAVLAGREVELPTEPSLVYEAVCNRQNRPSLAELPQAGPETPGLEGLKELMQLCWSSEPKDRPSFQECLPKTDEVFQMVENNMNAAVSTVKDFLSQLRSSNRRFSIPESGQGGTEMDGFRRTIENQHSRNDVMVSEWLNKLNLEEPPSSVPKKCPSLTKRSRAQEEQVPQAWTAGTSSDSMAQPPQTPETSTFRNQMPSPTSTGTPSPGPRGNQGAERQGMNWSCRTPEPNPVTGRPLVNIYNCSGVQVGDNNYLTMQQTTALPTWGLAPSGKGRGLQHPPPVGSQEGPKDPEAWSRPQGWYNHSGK
Sequence of RIP1 (Q13546 whole entry): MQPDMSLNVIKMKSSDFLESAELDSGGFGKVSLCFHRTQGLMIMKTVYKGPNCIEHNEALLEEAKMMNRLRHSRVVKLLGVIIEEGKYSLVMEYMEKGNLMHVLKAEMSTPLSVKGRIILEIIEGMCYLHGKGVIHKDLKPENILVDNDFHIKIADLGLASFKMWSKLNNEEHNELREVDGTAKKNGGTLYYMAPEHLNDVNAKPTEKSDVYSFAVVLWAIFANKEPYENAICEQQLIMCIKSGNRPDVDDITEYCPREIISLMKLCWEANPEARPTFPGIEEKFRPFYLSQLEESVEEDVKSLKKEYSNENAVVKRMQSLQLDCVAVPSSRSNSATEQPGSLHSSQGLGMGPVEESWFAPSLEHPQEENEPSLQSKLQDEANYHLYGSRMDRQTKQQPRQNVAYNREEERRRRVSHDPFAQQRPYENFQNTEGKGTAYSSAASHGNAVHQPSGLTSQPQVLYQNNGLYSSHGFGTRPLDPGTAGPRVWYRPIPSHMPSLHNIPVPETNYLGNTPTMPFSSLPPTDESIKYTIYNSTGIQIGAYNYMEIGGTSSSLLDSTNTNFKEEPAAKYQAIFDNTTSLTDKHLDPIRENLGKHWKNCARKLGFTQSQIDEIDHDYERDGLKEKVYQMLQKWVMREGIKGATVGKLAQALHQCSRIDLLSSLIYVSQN

As to `CCS(=O)(=O)Nc1ccc(-c2n[nH]c(Nc3cnccn3)c2C(N)=O)cc1OCc1ccccc1F` [Compound 2, 3-(4-(ethylsulfonamido)-3-((2-fluorobenzyl)oxy)phenyl)-5-(pyrazin-2-ylamino)-1H-pyrazole-4-carboxamide], the Kd on RIP1 and on RIP3 was > 30 µM throughout.

Take `CCS(=O)(=O)Nc1ccc(-c2n[nH]c(Nc3cccc(C(F)(F)F)n3)c2C(N)=O)cc1OCc1cccc(Cl)c1` [Compound 3, 3-(3-((3-chloro-benzyl)oxy)-4-(ethylsulfon-amido)phenyl)-5-((6-(trifluoro-methyl)pyridin-2-yl)amino)-1H-pyrazole-4-carboxamide]: the Kd at RIP1 and on RIP3 was > 30 µM throughout.

As to `CCS(=O)(=O)Nc1ccc(-c2n[nH]c(Nc3cccc(C(F)(F)F)n3)c2C(N)=O)cc1OCc1ccc(Cl)cc1` [Compound 4, 3-(3-((4-chloro-benzyl)oxy)-4-(ethylsulfon-amido)phenyl)-5-((6-(trifluoro-methyl)pyridin-2-yl)amino)-1H-pyrazole-4-carboxamide], the Kd at RIP1 and at RIP3 was > 30 µM in each case.

`CCS(=O)(=O)Nc1ccc(-c2n[nH]c(Nc3ccccn3)c2C(N)=O)cc1OCC1CCCC1` [Compound 36, 3-(3-(cyclopentyl-methoxy)-4-(ethylsulfon-amido)phenyl)-5-(pyridin-2-ylamino)-1H-pyrazole-4-carboxamide]: the dissociation constant (Kd) at RIP3 is > 30 µM.

Regarding `CCS(=O)(=O)Nc1ccc(-c2n[nH]c(Nc3cnccn3)c2C(N)=O)cc1OCC(C)C` [Compound 45, 3-(4-(ethylsulfonamido)-3-isobutoxyphenyl)-5-(pyrazin-2-ylamino)-1H-pyrazole-4-carboxamide], the Kd at RIP3 was > 30 µM.

Take `Cc1ccc(CS(=O)(=O)Nc2ccc(-c3n[nH]c(Nc4cccc(C(F)(F)F)n4)c3C(N)=O)cc2)cc1` [Compound 57, 3-(4-((p-tolylmethyl)sulfonamido)phenyl)-5-((6-(trifluoromethyl)pyridin-2-yl)amino)-1H-pyrazole-4-carboxamide]: the Kd at RIP3 was > 30 µM.

`CCS(=O)(=O)Nc1ccc(-c2n[nH]c(NC)c2C(N)=O)cc1` [Compound 119, 3-(4-(ethylsulfonamido)phenyl)-5-(methylamino)-1H-pyrazole-4-carboxamide]: the Kd at RIP3 is > 30 µM.

In the case of `CCS(=O)(=O)Nc1ccc(-c2n[nH]c(Nc3cnccn3)c2C(N)=O)cc1OCc1c(C)cc(F)cc1C` [Compound 142, 3-(4-(ethylsulfonamido)-3-((4-fluoro-2,6-dimethylbenzyl)oxy)phenyl)-5-(pyrazin-2-ylamino)-1H-pyrazole-4-carboxamide], the Kd at RIP3 is > 30 µM.

Regarding `CCS(=O)(=O)Nc1ccc(-c2n[nH]c(Nc3cnc(C)cn3)c2C(N)=O)cc1OCc1ccc(F)c(Cl)c1` [Compound 150, 3-(3-((3-chloro-4-fluorobenzyl)oxy)-4-(ethylsulfonamido)phenyl)-5-((5-methylpyrazin-2-yl)amino)-1H-pyrazole-4-carboxamide], the Kd is > 30 µM at RIP1 and < 0.01 µM on MLKL (full length).

Consider `CCS(=O)(=O)Nc1ccc(-c2n[nH]c(Nc3cnc(C(C)(C)C)cn3)c2C(N)=O)cc1` [Compound 181, 5-((5-(tert-butyl)pyrazin-2-yl)amino)-3-(4-(ethylsulfonamido)phenyl)-1H-pyrazole-4-carboxamide], for which the Kd on RIP1 is > 30 µM; on MLKL (full length), < 0.01 µM.

Take `NC(=O)c1c(-c2ccc(NS(=O)(=O)CCC(F)(F)F)cc2)n[nH]c1Nc1cccc(C(F)(F)F)n1` [Compound 189, 5-((6-(trifluoromethyl)pyridine-2-yl)amino)-3-(4-((3,3,3-trifluoropropyl)sulfonamido)phenyl)-1H-pyrazole-4-carboxamide]: the Kd at RIP1 was > 30 µM; at MLKL (full length), < 0.01 µM.

In the case of `CCS(=O)(=O)Nc1ccc(-c2n[nH]c(Nc3ccc(OC)nc3)c2C(N)=O)cc1OCc1ccc(F)cc1` [Compound 197, 3-(4-(ethylsulfonamido)-3-((4-fluorobenzyl)oxy)phenyl)-5-((6-methoxypyridin-3-yl)amino)-1H-pyrazole-4-carboxamide], the Kd on RIP1 was > 30 µM; on MLKL (full length), < 0.01 µM.

As usually defined, the Kd is the equilibrium constant for the complex coming apart. Lower therefore signals higher affinity.
